Columns and labels:
[1] = system: rice; experiment: Test B pre-/postemergence herbicide test; type: in vivo, Oryza sativa; details: preemergence
Procedure, shortened: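 Response was scored visually 13 to 15 days after treatment against untreated greenhouse controls, 0 meaning no effect and 100 complete control. Formulations (solvent mixture plus surfactant) went onto soil after planting, onto foliage of 1- to 4-leaf plants, and onto 2-leaf plants in a flooded paddy set including rice and barnyardgrass.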

[2] = system: bermudagrass; experiment: Test C pre-/postemergence herbicide test; type: in vivo, Cynodon dactylon; details: for Bermudagrass plant response rating: Preemergence, 500 g ai/ha
Procedure, shortened: (§1)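 Visual injury scores run from 0 (no effect) to 100 (complete control), assessed relative to untreated controls 12 to 14 days after treatment in the greenhouse. Chemicals were formulated in a non-phytotoxic solvent mixture with surfactant and applied to soil after planting or to emerged plants at the 1- to 4-leaf stage.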

[3] = system: giant foxtail; experiment: Test C pre-/postemergence herbicide test; type: in vivo, Setaria faberi
Procedure, shortened: as §1

[4] = system: goosegrass; experiment: Test C pre-/postemergence herbicide test; type: in vivo, Eleusine indica
Procedure, shortened: as §1

[5] = system: kochia; experiment: Test C pre-/postemergence herbicide test; type: in vivo, Kochia scoparia
Procedure, shortened: as §1

[6] = system: morningglory; experiment: Test C pre-/postemergence herbicide test; type: in vivo, Ipomoea coccinea; parameters: key to Plant response rating, Morningglory: 0 = no effect, 100 = complete control
Procedure, shortened: as §1

[7] = system: soybean; experiment: Test C pre-/postemergence herbicide test; type: in vivo, Glycine max
Procedure, shortened: as §1

[8] = system: common (oilseed) sunflower; experiment: Test C pre-/postemergence herbicide test; type: in vivo, Helianthus annuus
Procedure, shortened: as §1

[9] = system: smallflower umbrella sedge; experiment: Test C flooded paddy test; type: in vivo, Cyperus difformis; details: for Plant response rating, Sedge, Umbrella: 500 g ai/ha, visual rating after 12 to 14 days
[10] = 125 g ai/ha, scale 0 (no effect) to 100 (complete control), visual, 12 to 14 days, preemergence
[11] = 250 g ai/ha, scale 0-100, preemergence
[12] = scale 0 to 100, 0 no effect, 100 complete control
[13] = 62 g ai/ha, preemergence, scale 0 to 100
[14] = 500 g ai/ha, scale 0 to 100 (0 no effect, 100 complete control), visual, 12 to 14 days, preemergence
[15] = 125 g ai/ha, scale 0 to 100 (0 no effect, 100 complete control)
[16] = 250 g ai/ha, scale of 0 to 100, 0 is no effect, 100 is complete control
[17] = scale 0 to 100 (0 no effect, 100 complete control)
[18] = 250 g ai/ha, scale 0 to 100 (0 no effect, 100 complete control), visual, 12 to 14 days, preemergence
[19] = Preemergence, 500 g ai/ha, scale 0 to 100, 0 no effect, 100 complete control

CCn1nc(C2(C)CC2)cc1C(=O)Nc1cccc(C(=O)N2CC=CC2)c1 [Compound 304]
Rice plant response rating (0 to 100 scale) ([1]; 125 g ai/ha, 0 = no effect, 100 = complete control): 0 | Plant response rating, Rice ([1]; 500 g ai/ha, visual rating, 0 = no effect, 100 = complete control): 20 | Plant response rating, Bermudagrass ([2]; 62 g ai/ha, preemergence, scale 0 to 100, 0 no effect, 100 complete control): 5 | Plant response rating, Bermudagrass [2, 10]: 70 | Plant response rating, Bermudagrass [2, 11]: 100 | Bermudagrass plant response rating [2, 12]: 100 | Plant response rating, Foxtail, Giant [3, 13]: 5 | Plant response rating, Foxtail, Giant [3, 10]: 50 | Plant response rating, Foxtail, Giant [3, 11]: 60 | Plant response rating, Foxtail, Giant [3, 14]: 90 | Plant response rating, Goosegrass [4, 13]: 45 | Plant response rating, Goosegrass [4, 10]: 85 | Plant response rating, Goosegrass [4, 11]: 90 | Plant response rating, Goosegrass [4, 14]: 100 | Plant response rating, Kochia [5, 10]: 80 | Plant response rating, Kochia [5, 11]: 85 | Plant response rating, Kochia [5, 14]: 100 | Plant response rating, Morningglory [6, 13]: 0 | Plant response rating, Morningglory [6, 10]: 10 | Plant response rating, Morningglory [6, 11]: 10 | Plant response rating, Morningglory [6, 14]: 10 | Plant response rating, Soybean [7, 13]: 0 | Plant response rating, Soybean [7, 11]: 20 | Plant response rating, Soybean [7, 14]: 20 | Plant response rating, Sunflower [8, 13]: 0 | Plant response rating, Sunflower [8, 11]: 0 | Plant response rating, Sunflower [8, 14]: 5 | Sedge, Umbrella plant response rating ([9]; 62 g ai/ha, scale 0 to 100): 75 | Sedge, Umbrella plant response rating [9, 15]: 90 | Sedge, Umbrella plant response rating [9, 16]: 95 | Plant response rating, Sedge, Umbrella [9, 17]: 95

CCn1nc(C(C)(C)C)cc1C(=O)Nc1cc(C#N)ccc1F [Compound 140]
Plant response rating, Rice ([1]; 500 g ai/ha, visual rating 0-100, 0 no effect, 100 complete control): 70 | Plant response rating, Rice ([1]; 125 g ai/ha, 0 to 100 scale, 0 is no effect, 100 is complete control): 0 | Plant response rating (0 = no effect, 100 = complete control), Bermudagrass ([2]; 62 g ai/ha, preemergence): 0 | Plant response rating, Bermudagrass [2, 10]: 0 | Plant response rating, Bermudagrass [2, 18]: 60 | Bermudagrass plant response rating [2, 12]: 85 | Plant response rating (0 = no effect, 100 = complete control), Foxtail, Giant ([3]; 62 g ai/ha, preemergence): 0 | Plant response rating, Foxtail, Giant [3, 10]: 25 | Plant response rating, Foxtail, Giant [3, 18]: 65 | Foxtail, Giant plant response rating [3, 19]: 85 | Plant response rating (0 = no effect, 100 = complete control), Goosegrass ([4]; 62 g ai/ha, preemergence): 0 | Plant response rating, Goosegrass [4, 10]: 0 | Goosegrass plant response rating [4, 19]: 75 | Plant response rating (0 = no effect, 100 = complete control), Kochia ([5]; 62 g ai/ha, preemergence): 70 | Plant response rating, Kochia [5, 10]: 75 | Kochia plant response rating [5, 19]: 100 | Plant response rating (0 = no effect, 100 = complete control), Morningglory ([6]; 62 g ai/ha, preemergence): 0 | Plant response rating, Morningglory [6, 10]: 0 | Morningglory plant response rating [6, 19]: 0 | Plant response rating (0 = no effect, 100 = complete control), Soybean ([7]; 62 g ai/ha, preemergence): 0 | Soybean plant response rating [7, 19]: 0 | Plant response rating (0 = no effect, 100 = complete control), Sunflower ([8]; 62 g ai/ha, preemergence): 0 | Plant response rating, Sunflower [8, 10]: 0 | Sunflower plant response rating [8, 19]: 0 | Sedge, Umbrella plant response rating ([9]; 62 g ai/ha, scale 0 to 100 (0 no effect, 100 complete control)): 0 | Sedge, Umbrella plant response rating [9, 15]: 20 | Sedge, Umbrella plant response rating [9, 16]: 45 | Plant response rating, Sedge, Umbrella [9, 17]: 65
